From US9556242B2, “Method for regulating circadian rhythms” (ANYGEN CO., LTD., priority 2011, dated 2017)
“Also recorded” adds a separate entry of the source.

System: per2 promoter
Assay: Per2-luciferase activity in cultured mouse brain sections including SCN after NQ peptide treatment
Type: cell-based
Conditions: for phase-advance effect on Per2 circadian activity: NQ peptide forms and mutants treated to incubated brain section including SCN (FIG. 15); for effects in the Per2 phase advance or delay: 100 nM for 4 hours; for phase changes / activity period of per2 promoter: treated at the highest point of per2 activity; for phase changes / activity period of per2 promoter / free-running period after treatment: 5 μM (FIG. 12); for free-running period after treatment: treated at the lowest point of per2 activity
Description: Animals used in this experiment were transgenic mice in which the construct inserted Luciferase gene behind per2 promoter was knocked-in. The mice were sacrificed. The brain was speedily isolated and sectioned in a thickness of 400 μm including SCN. The mouse brain tissue sections were incubated in media containing 1% penicillin/streptomycin antibiotics, 25% Horse Serum, 25% Hank's Buffered Salt Solution (HBSS), 50% Minimum Essential Medium (MEM) and 0.3 mM luciferin. At 5 days after the incubation, the synthetic NQ peptides were treated with 5 μM of final concentration. Then, luciferase activity derived from changes of per2 promoter activities was observed.
The NQ peptides were treated with 100 nM of the concentration at 2, 6, 10, 14, 20 and 22 hours after the peak in Per2 activity with the 24-hour intervals wave. The treatment was maintained 4 hours. Then, the media were changed.
The NQ peptides were treated with 2 nM, 20 nM, 200 nM and 2000 nM of the concentrations for 4 hours to the sections at 10 hours after the peak in Per2 activity. Then, the media were changed to the original media (50% minimum essential medium, 25% gey's balanced salt solution, 25% horse serum, 36 mM glucose, and 100 units/ml aerosolized antibiotics) containing 0.3 mM luciferin to limit drug duration of the NQ peptide.
To achieve this, the present inventors have synthesized mutants: deletion mutant sequencing from first Asn to tenth Leu among the amino acid sequences as set forth in SEQ ID NO:2; optical isomer mutant 1 in which the second Trp residue is modified to D-form Trp; and optical isomer mutant 2 in which the eleventh Lys residue is modified to D-form Lys.
The NQ peptide as set forth in SEQ ID NO:2 or 3, or the NQ peptide mutants were respectively treated to the incubated brain section including SCN. Particularly, the NQ peptide as set forth in SEQ ID NO:2 found in humans and mouse was simultaneously treated with the a-NQ-S antibody as neutralization substance to elucidate those specific effects with more accuracy. […] Therefore, it could be understood that the carboxyl-terminus sequencing from the eleventh Lys residue to Gln as well as the second Trp residue and the eleventh Lys residue in the amino acid sequence of NQ peptide as set forth in SEQ ID NO:2 are very important in physiological activity.

NQ peptide as set forth in SEQ ID NO:3: form of the NQ peptide found in rat; His residue at the carboxyl-terminus instead of the amide group (NWTPQAMLYLKGAQGH; NQ Peptide 3)
phase-advance effect on Per2 circadian activity: caused the advance effects in circadian activity; also recorded: changed the Per2 phase; also recorded: showed phase-advance effects of Per2

NWTPQAMLYLKGAQ-NH2 [NQ peptide]
effects in the Per2 phase advance or delay (treated at 2 hours after the peak in Per2 activity (FIG. 13)): negligible or barely shown
effects in the Per2 phase advance or delay (treated at 6 hours after the peak in Per2 activity (FIG. 13)): negligible or barely shown
effects in the Per2 phase advance or delay (treated at 10 hours after the peak in Per2 activity (FIG. 13)): significantly advanced
effects in the Per2 phase advance or delay (treated at 14 hours after the peak in Per2 activity (FIG. 13)): significantly advanced
effects in the Per2 phase advance or delay (treated at 20 hours after the peak in Per2 activity (FIG. 13)): significantly advanced
effects in the Per2 phase advance or delay (treated at 22 hours after the peak in Per2 activity (FIG. 13)): negligible or barely shown; also recorded: negligible
highest effect time (after peak in Per2 activity) (100 nM, phase-dependent treatment (FIG. 13)): 10 h
dose dependence of Per2 phase-advance effect (2, 20, 200, 2000 nM for 4 hours at 10 hours after the peak (lowest point) in Per2 activity (FIG. 14)): advanced proportionally to the concentration; also recorded: dose-dependent manner
concentration range in which Per2 expression period was advanced proportionally (4 hours treatment at 10 hours after the peak in Per2 activity (FIG. 14)): 20 to 200 nM
phase-advance effect on Per2 circadian activity (listed as NQ peptide as set forth in SEQ ID NO:2): caused the advance effects in circadian activity; also recorded: changed the Per2 phase; also recorded: showed phase-advance effects of Per2
free-running period advanced by (synthetic NQ peptide treated at the lowest point in Per2 phase, mouse brain section (FIG. 12)): approximately 2.80 hours
phase changes / activity period of per2 promoter: not changed
phase changes / activity period of per2 promoter (listed as synthetic NQ peptide): negligible or barely shown
highest concentration of the NQ peptide (phase-advance effect) (treated at the lowest point in Per2 phase (FIG. 14)): 200 nM
free-running period after treatment: approximately 22.3 hours
free-running period after treatment (listed as synthetic NQ peptide): approximately 22.87 hours
activity period of per2 promoter (treated at the point in which per2 shows the highest activity, 5 μM): approximately 24 hours
